Data: US20170368082A1, “FORMULATIONS OF BRINCIDOFOVIR” (priority 2016, published 2017)
“And” between values parts separate entries of the source, which are not always exact repeats. Equal values may be shown once. Read-outs that look alike come from different tables or passages of the source.

Assay: Phase 2 toxicokinetics of brincidofovir and cidofovir in plasma
Type: in vivo, Sprague-Dawley CD rats
Parameters: Imputed Concentration, Mean: unit: ng/mL
Conditions: for cidofovir Concentration (C): individual animals; for concentration at 1 h / concentration at 2 h / concentration at 8 h / concentration at 24 h / concentration at 0 h: Sprague-Dawley CD, rat, intravenous, 1 mg/kg; for concentration at 1 h / concentration at 2 h / concentration at 8 h / concentration at 24 h / concentration at 0 h / Imputed Concentration, individual animals / Imputed Concentration, Mean: plasma, BLQ imputed as zero
Procedure: Plasma samples (108) were collected 2 hours following the initiation of dosing on Day 1 and Day 7 (Group 1), or at 1, 2, 8, and 24 hours following the initiation of dosing on Day 1, and prior to administration and at 2, 8, and 24 hours following the initiation of dosing on Day 7 (Groups 2 and 3), and analyzed to determine the concentrations of brincidofovir and the metabolite, cidofovir), by LC/MS/MS.
Approximately 0.4 mL of whole blood was obtained via the tail vein from each animal at each time point. Animals were not fasted prior to blood collection. Blood was collected into tubes containing K2EDTA anticoagulant and placed on wet ice in an upright position, per facility SOP prior to processing. Plasma was separated by centrifugation (10 minutes at approximately 2000 g, at approximately 2-8° C.). Approximately 0.10 mL of plasma was transferred into a single cryotube appropriately labeled with study number, animal number, time point, date of sampling and sample type. Remaining plasma was transferred into a second cryotube and retained as a backup sample. Plasma frozen at approximately −80±10° C. within approximately 2 hours after collection of each blood sample until analysis. Animals were euthanized (CO2 inhalation) after the final blood collection.
In general, TK parameters were estimated using mean plasma concentrations of brincidofovir and cidofovir derived from the composite blood sampling design using Phoenix WinNonLin (V 6.3).
A composite blood sampling design was used such that each rat was sampled twice per sampling day. Blood was collected via tail vein from unanesthetized animals into tubes containing anticoagulant and placed on wet ice in an upright position. Animals were not fasted prior to blood collection. Plasma was separated by centrifugation (for 10 minutes at approximately 2000 g, at approximately 2-8° C.), and transferred into individually labeled cryotubes. All cryotubes containing the collected plasma samples were appropriately labeled as to study number, animal number, time point, date of sampling and sample type. All plasma samples were obtained and frozen at approximately −80° C. (±10° C.) within approximately 2 hours after collection of each blood sample until analysis.
Rat plasma bioanalysis was conducted by Pyxant Laboratories. Plasma samples were analyzed for concentrations of brincidofovir and cidofovir using a method based upon protein precipitation extraction followed by LC-MS/MS analysis; calibration ranges for brincidofovir and cidofovir were 1.00-1500 ng/mL and 5.00-750 ng/mL, respectively, (Pyxant study number 3025) for a 50 μL aliquot of rat plasma. Sample analysis for ISR was not performed as part of this non-GLP study.
For the generation of Mean Profiles, all sample concentrations that were below the limit of quantitation (BLQ) were set to 0.
All pharmacokinetic parameter estimates were completed using a Non-Compartmental Model (Model 200-202 for IV infusion administration). The AUClast and AUCinf were calculated using the linear up log down trapezoidal rule.

[1] = brincidofovir 1 mg/kg 2-h IV infusion, female rats, Day 7, 0 h
[2] = brincidofovir 1 mg/kg 2-h IV infusion, female rats, Day 7, 2 h
[3] = brincidofovir 1 mg/kg 2-h IV infusion, female rats, Day 7, 8 h
[4] = brincidofovir 1 mg/kg 2-h IV infusion, female rats, Day 7, 24 h
[5] = brincidofovir 1 mg/kg 2-h IV infusion, male rats, Day 7, 2 h
[6] = brincidofovir 1 mg/kg 2-h IV infusion, male rats, Day 7, 8 h
[7] = brincidofovir 1 mg/kg 2-h IV infusion, male rats, Day 7, 24 h
[8] = brincidofovir 15 mg/kg 2-h IV infusion, female rats, Day 1, 1 h
[9] = brincidofovir 15 mg/kg 2-h IV infusion, female rats, Day 1, 2 h
[10] = brincidofovir 15 mg/kg 2-h IV infusion, female rats, Day 1, 8 h
[11] = brincidofovir 15 mg/kg 2-h IV infusion, female rats, Day 1, 24 h
[12] = brincidofovir 15 mg/kg 2-h IV infusion, female rats, Day 7, 0 h
[13] = brincidofovir 15 mg/kg 2-h IV infusion, female rats, Day 7, 2 h
[14] = brincidofovir 15 mg/kg 2-h IV infusion, male rats, Day 1, 1 h
[15] = brincidofovir 15 mg/kg 2-h IV infusion, male rats, Day 1, 2 h
[16] = brincidofovir 15 mg/kg 2-h IV infusion, male rats, Day 1, 8 h
[17] = brincidofovir 15 mg/kg 2-h IV infusion, male rats, Day 1, 24 h
[18] = brincidofovir 15 mg/kg 2-h IV infusion, male rats, Day 7, 0 h
[19] = brincidofovir 15 mg/kg 2-h IV infusion, male rats, Day 7, 2 h

Nc1ccn(C[C@@H](CO)OCP(=O)(O)O)c(=O)n1 [Cidofovir]
cidofovir Concentration (C) (brincidofovir 1 mg/kg, Female, Day 1, 1 h): BLQ
cidofovir Concentration (C) (brincidofovir 1 mg/kg, Female, Day 1, 8 h): BLQ
cidofovir Concentration (C) (brincidofovir 1 mg/kg, Female, Day 1, 24 h): BLQ
cidofovir Concentration (C) (brincidofovir 1 mg/kg, Female, Day 7, 0 h): BLQ
cidofovir Concentration (C) (brincidofovir 1 mg/kg, Female, Day 7, 24 h): BLQ
cidofovir Concentration (C) (brincidofovir 1 mg/kg, Male, Day 1, 1 h): BLQ
cidofovir Concentration (C) (brincidofovir 1 mg/kg, Male, Day 1, 2 h): BLQ
cidofovir Concentration (C) (brincidofovir 1 mg/kg, Male, Day 1, 8 h): BLQ
cidofovir Concentration (C) (brincidofovir 1 mg/kg, Male, Day 1, 24 h): BLQ
cidofovir Concentration (C) (brincidofovir 1 mg/kg, Male, Day 7, 0 h): BLQ
cidofovir Concentration (C) (brincidofovir 1 mg/kg, Male, Day 7, 2 h): BLQ
cidofovir Concentration (C) (brincidofovir 1 mg/kg, Male, Day 7, 24 h): BLQ
cidofovir Concentration (C) (brincidofovir 15 mg/kg, Female, Day 7, 0 h): BLQ
cidofovir Concentration (C) (brincidofovir 15 mg/kg, Male, Day 1, 1 h): BLQ
cidofovir Concentration (C) (brincidofovir 15 mg/kg, Male, Day 7, 0 h): BLQ
concentration at 1 h (female, brincidofovir 1 mg/kg 2-h IV infusion, female rats, Day 1, 1 h, read-out: Imputed Concentration, Mean): 0 ng/mL
concentration at 1 h (female, brincidofovir 1 mg/kg 2-h IV infusion, female rats, Day 1, 1 h, read-out: Imputed Concentration, individual animals): 0 ng/mL
concentration at 2 h (female, brincidofovir 1 mg/kg 2-h IV infusion, female rats, Day 1, 2 h, read-out: Imputed Concentration, Mean): 9.35 ng/mL
concentration at 2 h (female, brincidofovir 1 mg/kg 2-h IV infusion, female rats, Day 1, 2 h, read-out: Imputed Concentration, individual animals): 9.62 ng/mL
concentration at 8 h (female, brincidofovir 1 mg/kg 2-h IV infusion, female rats, Day 1, 8 h, read-out: Imputed Concentration, Mean): 4.24 ng/mL
concentration at 24 h (female, brincidofovir 1 mg/kg 2-h IV infusion, female rats, Day 1, 24 h, read-out: Imputed Concentration, Mean): 0 ng/mL
concentration at 24 h (female, brincidofovir 1 mg/kg 2-h IV infusion, female rats, Day 1, 24 h, read-out: Imputed Concentration, individual animals): 0 ng/mL
concentration at 0 h (female, brincidofovir 1 mg/kg 2-h IV infusion, female rats, Day 7, 0 h, read-out: Imputed Concentration, individual animals): 0 ng/mL
concentration at 1 h (male, brincidofovir 1 mg/kg 2-h IV infusion, male rats, Day 1, 1 h, read-out: Imputed Concentration, Mean): 0 ng/mL
concentration at 1 h (male, brincidofovir 1 mg/kg 2-h IV infusion, male rats, Day 1, 1 h, read-out: Imputed Concentration, individual animals): 0 ng/mL
concentration at 2 h (male, brincidofovir 1 mg/kg 2-h IV infusion, male rats, Day 1, 2 h, read-out: Imputed Concentration, Mean): 0 ng/mL
concentration at 2 h (male, brincidofovir 1 mg/kg 2-h IV infusion, male rats, Day 1, 2 h, read-out: Imputed Concentration, individual animals): 0 ng/mL
concentration at 8 h (male, brincidofovir 1 mg/kg 2-h IV infusion, male rats, Day 1, 8 h, read-out: Imputed Concentration, Mean): 1.95 ng/mL
concentration at 24 h (male, brincidofovir 1 mg/kg 2-h IV infusion, male rats, Day 1, 24 h, read-out: Imputed Concentration, Mean): 0 ng/mL
concentration at 24 h (male, brincidofovir 1 mg/kg 2-h IV infusion, male rats, Day 1, 24 h, read-out: Imputed Concentration, individual animals): 0 ng/mL
concentration at 0 h (male, brincidofovir 1 mg/kg 2-h IV infusion, male rats, Day 7, 0 h, read-out: Imputed Concentration, Mean): 0 ng/mL
concentration at 0 h (male, brincidofovir 1 mg/kg 2-h IV infusion, male rats, Day 7, 0 h, read-out: Imputed Concentration, individual animals): 0 ng/mL
Imputed Concentration, individual animals (brincidofovir 1 mg/kg 2-h IV infusion, female rats, Day 1, 1 h): 0.00 ng/mL
Imputed Concentration, individual animals (brincidofovir 1 mg/kg 2-h IV infusion, female rats, Day 1, 2 h): 6.22 ng/mL and 12.2 ng/mL
Imputed Concentration, individual animals (brincidofovir 1 mg/kg 2-h IV infusion, female rats, Day 1, 8 h): 7.12 ng/mL and 5.60 ng/mL and 0.00 ng/mL
Imputed Concentration, individual animals (brincidofovir 1 mg/kg 2-h IV infusion, female rats, Day 1, 24 h): 0.00 ng/mL
Imputed Concentration, Mean [1]: 0.00 ng/mL
Imputed Concentration, individual animals [1]: 0.00 ng/mL
Imputed Concentration, Mean [2]: 15.0 ng/mL
Imputed Concentration, individual animals [2]: 13.5 ng/mL and 13.8 ng/mL and 17.6 ng/mL
Imputed Concentration, Mean [3]: 7.57 ng/mL
Imputed Concentration, individual animals [3]: 9.51 ng/mL and 7.84 ng/mL and 5.36 ng/mL
Imputed Concentration, Mean [4]: 0.00 ng/mL
Imputed Concentration, individual animals [4]: 0.00 ng/mL
Imputed Concentration, individual animals (brincidofovir 1 mg/kg 2-h IV infusion, male rats, Day 1, 1 h): 0.00 ng/mL
Imputed Concentration, individual animals (brincidofovir 1 mg/kg 2-h IV infusion, male rats, Day 1, 2 h): 0.00 ng/mL
Imputed Concentration, individual animals (brincidofovir 1 mg/kg 2-h IV infusion, male rats, Day 1, 8 h): 5.85 ng/mL and 0.00 ng/mL (2×)
Imputed Concentration, individual animals (brincidofovir 1 mg/kg 2-h IV infusion, male rats, Day 1, 24 h): 0.00 ng/mL
Imputed Concentration, individual animals (brincidofovir 1 mg/kg 2-h IV infusion, male rats, Day 7, 0 h): 0.00 ng/mL
Imputed Concentration, Mean [5]: 0.00 ng/mL
Imputed Concentration, individual animals [5]: 0.00 ng/mL
Imputed Concentration, Mean [6]: 5.73 ng/mL
Imputed Concentration, individual animals [6]: 5.67 ng/mL and 5.45 ng/mL and 6.07 ng/mL
Imputed Concentration, Mean [7]: 0.00 ng/mL
Imputed Concentration, individual animals [7]: 0.00 ng/mL
Imputed Concentration, Mean [8]: 15.1
Imputed Concentration, individual animals [8]: 14.5 and 20.5 and 10.3
Imputed Concentration, Mean [9]: 28.7
Imputed Concentration, individual animals [9]: 10.9 and 41.2 and 34.1
Imputed Concentration, Mean [10]: 38.6
Imputed Concentration, individual animals [10]: 37.3 and 37.7 and 40.7
Imputed Concentration, Mean [11]: 22.1
Imputed Concentration, individual animals [11]: 24.6 and 23.2 and 18.6
Imputed Concentration, Mean [12]: 0.00
Imputed Concentration, individual animals [12]: 0.00
Imputed Concentration, Mean [13]: 34.5
Imputed Concentration, individual animals [13]: 20.2 and 49.1 and 34.2
Imputed Concentration, individual animals (brincidofovir 15 mg/kg 2-h IV infusion, female rats, Day 7, 8 h): 36.4 and 54.2
Imputed Concentration, Mean [14]: 5.35
Imputed Concentration, individual animals [14]: 8.97 and 0.00 and 7.08
Imputed Concentration, Mean [15]: 18.0
Imputed Concentration, individual animals [15]: 25.9 and 13.1 and 15.1
Imputed Concentration, Mean [16]: 32.8
Imputed Concentration, individual animals [16]: 35.8 and 29.5 and 33.0
Imputed Concentration, Mean [17]: 16.7
Imputed Concentration, individual animals [17]: 20.5 and 14.0 and 15.5
Imputed Concentration, Mean [18]: 0.00
Imputed Concentration, individual animals [18]: 0.00
Imputed Concentration, Mean [19]: 24.0
Imputed Concentration, individual animals [19]: 38.8 and 15.0 and 18.3
Imputed Concentration, individual animals (brincidofovir 15 mg/kg 2-h IV infusion, male rats, Day 7, 8 h): 38.4 and 31.1 and 28.8
